# Patent US11478496B2, “Treatments of prostate cancer” (THE FLORIDA INTERNATIONAL UNIVERSITY BOARD OF TRUSTEES, priority 2020, dated 2022)
# System: PNT1A cells
# Test: RTCA impedance proliferation assay, PNT1A
# Type: cell-based
# Conditions: 10 μM
# Procedure: (6A-6B) PNT1A cells were plated onto xCelligence E-plates at 5×10^4 cells per well in media supplemented with 10% FBS (6A) or CSS (6B). Cells were allowed to attach overnight and treated with vehicle (DMSO) or 10 μM of indicated compounds. Cellular impedance was monitored continuously with 30 min intervals. (6C) RWPE1 cells were plated at 5×10^4 cells per well in serum free medium supplemented with Epidermal Growth Factor (EGF) and Bovine Pituitary Extract ([…]) onto E-plates and treated with 10 μM of indicated compounds as indicated. […] Background impedance was established after incubating E-plates (Acea Biosciences, San Diego, Calif.) with 50 μL media at room temperature for 30 min and placed in RTCA. Cells were then seeded in 100 μL per well. Cells attached overnight and then treated. During attachment stage and after treatment impedance was measured every 30 min. Impedance is represented by cell index and is calculated as follows: CI=(Zi−Zo)/15Ω where Zi is impedance at an individual time point, and Zo is the background impedance. Average CI was calculated from four wells per treatment at each time point and normalized to the impedance immediately after compound addition.
smiles,measurement,setting,value
C[C@@H]1C/C=C/C=C/C=C/C=C/[C@H](O[C@@H]2O[C@H](C)[C@@H](O)[C@H](N)[C@@H]2O)C[C@@H]2O[C@](O)(C[C@@H](O)C[C@H]3O[C@@H]3/C=C/C(=O)O1)C[C@H](O)[C@H]2C(=O)O [natamycin],"PNT1A cell proliferation, concentration dependence","1 μM and 0.1 μM, both CSS and FBS medium",inhibited only with 10 μM
same,time of treatment at which effect on PNT1A proliferation became evident,FBS and CSS media,42 h
same,PNT1A proliferation,both FBS and CSS supplemented media,proliferated in the presence of all inhibitors except natamycin
